Data: US20250114345A1, “COMPOUNDS AND COMPOSITIONS AS CBP/P300 DEGRADERS AND USES THEREOF” (Oncopia Therapeutics, Inc. d/b/a/ SK Life Science Labs, priority 2023, published 2025)

Columns and labels:
CBP = molecular target: T1, CBP (Homo sapiens, UniProt Q92793); assay: CBP degradation, HiBit technology in A549 CBP HiBit cells (24 h); format: cell-based; details: 24 hrs post treatment
T1 construct: host or cells: A549 CBP HiBit cells
Protocol: p300 and CBP degradation potency and Dmax were determined using in cell western (ICW) assay technology in H1299 cells or HiBit technology in A549 HiBit cells.
A549 P300 HiBit and A549 CBP HiBit cells were plated in separate 384-well, TC treated, white-opaque, flat-bottomed microplate. Cells were plated at a cell density of 0.2×10^4 cells per well in assay media comprised of F-12K, 10% heat inactivated FBS, and 1% penicillin/streptomycin. Assay microplates containing HiBit cells were placed in a 37° C., 5% CO2, tissue culture incubator and left to equilibrate overnight. The next day cells were treated with serial dilutions of test compound made up of 10 mM stock solutions in DMSO. 384-Well plates containing treated cells were then placed back into a 37° C., 5% CO2, tissue culture incubator. Assay microplates containing A549 P300 HiBit cells were incubated for 2 hrs post treatment before P300 destruction was assessed, while microplates containing A549 CBP HiBit cells were incubated for 24 hrs post treatment before CBP destruction was determined. On the day of each assay time point, microplates were removed from the tissue culture incubator and prepared HiBit Lytic detection buffer (Promega, cat #N3O40) was added to each plate. Plates were covered with aluminum foil and incubated for ten minutes at room temperature on an orbital shaker. After incubation, luminescent signal of each plate was measured using the Envision instrument (Perkin Elmer).

p300 = molecular target: T2, p300 (Homo sapiens, UniProt Q09472); assay: P300 degradation, HiBit technology in A549 P300 HiBit cells (2 h); format: cell-based; details: 2 hrs post treatment; for Dmax: A549, A549 P300 HiBit cells; for DC50: A549 P300 HiBit cells
T2 construct: host or cells: A549 P300 HiBit cells
Method in brief: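 A549 cells carrying HiBit-tagged p300 or CBP, seeded overnight at 37 °C/5% CO2, then treated with serial compound dilutions from 10 mM DMSO stocks. Incubation was 2 h for p300 and 24 h for CBP, followed by HiBit lytic detection reagent for 10 min at room temperature. Luminescence read gave degradation potency and Dmax.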

T2 sequence (Q09472 whole entry): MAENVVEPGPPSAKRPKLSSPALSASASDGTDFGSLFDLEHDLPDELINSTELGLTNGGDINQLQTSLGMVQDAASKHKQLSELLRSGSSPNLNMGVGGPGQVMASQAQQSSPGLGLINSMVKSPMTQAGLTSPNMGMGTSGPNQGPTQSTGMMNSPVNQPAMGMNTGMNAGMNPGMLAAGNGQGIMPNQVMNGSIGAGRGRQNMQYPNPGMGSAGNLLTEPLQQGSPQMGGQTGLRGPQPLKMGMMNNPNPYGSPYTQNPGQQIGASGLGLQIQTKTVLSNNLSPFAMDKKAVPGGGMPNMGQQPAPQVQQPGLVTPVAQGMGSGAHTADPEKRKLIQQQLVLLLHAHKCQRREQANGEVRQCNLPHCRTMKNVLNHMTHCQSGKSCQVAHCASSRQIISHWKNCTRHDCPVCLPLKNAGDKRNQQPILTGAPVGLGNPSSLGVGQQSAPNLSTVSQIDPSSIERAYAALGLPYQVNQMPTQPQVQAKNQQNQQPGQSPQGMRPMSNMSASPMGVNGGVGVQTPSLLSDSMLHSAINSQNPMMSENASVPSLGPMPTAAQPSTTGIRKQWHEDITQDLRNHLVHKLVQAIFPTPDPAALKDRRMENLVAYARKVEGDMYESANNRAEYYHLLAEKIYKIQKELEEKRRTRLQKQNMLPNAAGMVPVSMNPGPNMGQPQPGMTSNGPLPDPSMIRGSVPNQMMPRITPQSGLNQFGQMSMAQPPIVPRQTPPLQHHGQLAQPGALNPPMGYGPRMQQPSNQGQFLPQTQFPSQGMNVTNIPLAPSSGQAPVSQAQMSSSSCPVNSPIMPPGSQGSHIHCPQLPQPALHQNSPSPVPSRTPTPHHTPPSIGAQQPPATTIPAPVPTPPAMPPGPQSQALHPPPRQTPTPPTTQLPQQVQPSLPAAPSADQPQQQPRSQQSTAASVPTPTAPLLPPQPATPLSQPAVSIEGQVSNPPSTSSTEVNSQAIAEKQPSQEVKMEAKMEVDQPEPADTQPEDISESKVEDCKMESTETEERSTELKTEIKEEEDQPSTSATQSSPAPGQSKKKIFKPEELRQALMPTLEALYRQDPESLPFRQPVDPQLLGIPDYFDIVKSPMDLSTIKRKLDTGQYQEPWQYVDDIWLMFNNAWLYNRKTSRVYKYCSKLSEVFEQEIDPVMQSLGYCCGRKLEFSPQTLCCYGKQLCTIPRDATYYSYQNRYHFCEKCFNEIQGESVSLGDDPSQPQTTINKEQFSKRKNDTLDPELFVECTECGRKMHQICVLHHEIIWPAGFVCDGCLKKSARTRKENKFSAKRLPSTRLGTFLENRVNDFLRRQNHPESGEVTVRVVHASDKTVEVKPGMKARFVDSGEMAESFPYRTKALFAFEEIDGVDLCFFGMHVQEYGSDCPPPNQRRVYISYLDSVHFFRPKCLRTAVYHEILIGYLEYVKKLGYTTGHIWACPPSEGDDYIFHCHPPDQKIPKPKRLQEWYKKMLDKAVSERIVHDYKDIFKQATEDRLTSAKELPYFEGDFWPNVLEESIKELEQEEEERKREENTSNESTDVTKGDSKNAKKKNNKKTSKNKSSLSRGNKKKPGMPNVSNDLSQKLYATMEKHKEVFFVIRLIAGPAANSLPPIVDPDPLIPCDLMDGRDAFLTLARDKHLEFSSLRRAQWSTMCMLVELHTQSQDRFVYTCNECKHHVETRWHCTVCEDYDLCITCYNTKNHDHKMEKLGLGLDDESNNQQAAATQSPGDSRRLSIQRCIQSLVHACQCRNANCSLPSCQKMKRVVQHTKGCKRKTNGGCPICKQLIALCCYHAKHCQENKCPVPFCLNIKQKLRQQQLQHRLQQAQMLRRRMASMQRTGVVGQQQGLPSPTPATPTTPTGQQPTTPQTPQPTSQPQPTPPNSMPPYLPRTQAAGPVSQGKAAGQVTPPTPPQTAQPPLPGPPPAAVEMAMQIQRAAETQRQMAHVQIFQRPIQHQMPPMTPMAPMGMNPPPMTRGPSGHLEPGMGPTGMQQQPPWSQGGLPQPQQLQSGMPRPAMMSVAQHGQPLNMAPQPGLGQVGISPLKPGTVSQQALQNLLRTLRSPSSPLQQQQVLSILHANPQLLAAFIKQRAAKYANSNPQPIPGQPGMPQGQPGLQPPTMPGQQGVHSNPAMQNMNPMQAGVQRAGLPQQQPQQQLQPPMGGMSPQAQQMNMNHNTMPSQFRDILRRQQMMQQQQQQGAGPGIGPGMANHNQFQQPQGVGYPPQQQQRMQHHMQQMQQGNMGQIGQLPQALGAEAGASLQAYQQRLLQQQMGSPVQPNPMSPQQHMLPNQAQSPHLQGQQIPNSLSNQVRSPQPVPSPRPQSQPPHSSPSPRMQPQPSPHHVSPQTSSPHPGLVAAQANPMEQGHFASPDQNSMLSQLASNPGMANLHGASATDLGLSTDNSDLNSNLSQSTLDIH
T1 sequence (Q92793 whole entry): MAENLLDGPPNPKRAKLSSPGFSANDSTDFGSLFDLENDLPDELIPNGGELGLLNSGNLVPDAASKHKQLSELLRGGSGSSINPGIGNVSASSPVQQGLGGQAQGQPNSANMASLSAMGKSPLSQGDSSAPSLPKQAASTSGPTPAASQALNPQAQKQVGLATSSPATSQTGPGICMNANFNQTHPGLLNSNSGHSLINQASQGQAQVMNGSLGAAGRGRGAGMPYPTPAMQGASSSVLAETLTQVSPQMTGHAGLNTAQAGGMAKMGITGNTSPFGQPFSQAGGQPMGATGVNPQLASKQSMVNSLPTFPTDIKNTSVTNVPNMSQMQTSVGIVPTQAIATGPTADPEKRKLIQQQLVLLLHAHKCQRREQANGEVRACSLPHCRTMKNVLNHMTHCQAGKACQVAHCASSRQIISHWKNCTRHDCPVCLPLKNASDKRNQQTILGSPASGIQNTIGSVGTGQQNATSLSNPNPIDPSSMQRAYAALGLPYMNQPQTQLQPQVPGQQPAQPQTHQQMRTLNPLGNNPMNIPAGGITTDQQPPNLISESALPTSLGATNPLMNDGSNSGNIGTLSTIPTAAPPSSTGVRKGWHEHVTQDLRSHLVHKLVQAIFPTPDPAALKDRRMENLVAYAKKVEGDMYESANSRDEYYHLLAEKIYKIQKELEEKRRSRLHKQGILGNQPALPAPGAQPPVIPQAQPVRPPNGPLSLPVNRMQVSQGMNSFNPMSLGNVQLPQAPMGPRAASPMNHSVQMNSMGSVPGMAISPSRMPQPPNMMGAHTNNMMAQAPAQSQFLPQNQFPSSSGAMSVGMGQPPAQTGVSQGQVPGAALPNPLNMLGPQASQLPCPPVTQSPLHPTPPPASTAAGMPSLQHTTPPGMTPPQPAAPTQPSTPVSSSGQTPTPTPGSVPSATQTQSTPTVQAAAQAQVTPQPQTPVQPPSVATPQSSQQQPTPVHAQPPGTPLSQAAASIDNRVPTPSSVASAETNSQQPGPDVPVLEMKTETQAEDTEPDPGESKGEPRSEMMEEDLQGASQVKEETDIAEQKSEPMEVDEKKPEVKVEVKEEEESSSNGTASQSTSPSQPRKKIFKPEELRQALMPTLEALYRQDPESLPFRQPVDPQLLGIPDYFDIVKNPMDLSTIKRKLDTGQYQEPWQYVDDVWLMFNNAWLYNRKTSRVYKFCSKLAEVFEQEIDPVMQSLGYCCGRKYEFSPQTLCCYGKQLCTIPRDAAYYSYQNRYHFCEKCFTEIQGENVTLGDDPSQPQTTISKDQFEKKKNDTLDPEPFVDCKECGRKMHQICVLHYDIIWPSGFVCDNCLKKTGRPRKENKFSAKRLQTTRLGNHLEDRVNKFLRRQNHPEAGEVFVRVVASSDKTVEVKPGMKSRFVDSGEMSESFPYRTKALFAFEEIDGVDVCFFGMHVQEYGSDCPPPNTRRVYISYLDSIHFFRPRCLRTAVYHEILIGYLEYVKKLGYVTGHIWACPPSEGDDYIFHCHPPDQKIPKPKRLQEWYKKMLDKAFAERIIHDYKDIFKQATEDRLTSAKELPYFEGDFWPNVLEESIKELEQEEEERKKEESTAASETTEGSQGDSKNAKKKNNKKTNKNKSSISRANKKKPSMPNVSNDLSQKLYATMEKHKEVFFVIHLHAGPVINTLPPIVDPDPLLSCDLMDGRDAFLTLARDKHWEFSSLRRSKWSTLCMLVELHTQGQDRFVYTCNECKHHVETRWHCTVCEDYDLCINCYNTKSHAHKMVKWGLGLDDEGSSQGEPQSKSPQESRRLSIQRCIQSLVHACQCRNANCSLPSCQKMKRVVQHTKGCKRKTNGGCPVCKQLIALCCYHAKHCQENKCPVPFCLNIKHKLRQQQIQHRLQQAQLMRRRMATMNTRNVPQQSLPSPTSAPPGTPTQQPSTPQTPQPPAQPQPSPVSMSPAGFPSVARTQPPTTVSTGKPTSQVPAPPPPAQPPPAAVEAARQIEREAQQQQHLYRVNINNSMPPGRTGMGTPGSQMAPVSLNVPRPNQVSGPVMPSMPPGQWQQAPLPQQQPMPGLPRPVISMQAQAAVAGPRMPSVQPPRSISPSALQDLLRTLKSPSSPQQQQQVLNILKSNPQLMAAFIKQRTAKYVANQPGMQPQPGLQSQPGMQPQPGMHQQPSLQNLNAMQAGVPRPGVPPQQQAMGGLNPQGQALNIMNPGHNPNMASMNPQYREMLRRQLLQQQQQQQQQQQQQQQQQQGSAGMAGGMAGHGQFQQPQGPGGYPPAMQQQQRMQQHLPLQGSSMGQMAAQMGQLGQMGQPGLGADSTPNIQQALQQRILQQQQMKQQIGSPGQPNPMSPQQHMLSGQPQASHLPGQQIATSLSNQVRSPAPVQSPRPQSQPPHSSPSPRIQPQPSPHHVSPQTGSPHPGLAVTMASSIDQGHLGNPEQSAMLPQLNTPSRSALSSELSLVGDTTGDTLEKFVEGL

Structure (SMILES)	DC50 (CBP) [nM]	Dmax (CBP) [%]	Dmax (p300) [%]	DC50 (p300) [nM]
CC(C)c1cc(-c2cccc3cc(-c4ccc(C(=O)NCC#Cc5ccc6cnn(C7CCC(=O)NC7=O)c6c5F)nc4)ncc23)cc2c1n(C)c(=O)n2C (stereo not shown) [Example A1, N-(3-(1-(2,6-Dioxopiperidin-3-yl)-7-fluoro-1H-indazol-6-yl)prop-2-yn-1-yl)-5-(8-(7-isopropyl-1,3-dimethyl-2-oxo-2,3-dihydro-1H-benzo[d]imidazol-5-yl)isoquinolin-3-yl)picolinamide]	10 to 99	40 to 59	> 80	1 to 9.9
CC(C)c1cc(-c2cccc3cc(-c4ccc(C(=O)NCC#Cc5cccc(NC67CC(C6)C(=O)NC7=O)c5)nc4)ncc23)cc2c1n(C)c(=O)n2C [Example A2, N-(3-(3-((2,4-Dioxo-3-azabicyclo[3.1.1]heptan-1-yl)amino)phenyl)prop-2-yn-1-yl)-5-(8-(7-isopropyl-1,3-dimethyl-2-oxo-2,3-dihydro-1H-benzo[d]imidazol-5-yl)isoquinolin-3-yl)picolinamide]	> 1000	< 20	> 80	10 to 99
CC(C)c1cc(-c2cccc3cc(-c4ccc(C(=O)NCC#Cc5ccc6nnn(C7CCC(=O)NC7=O)c6c5)nc4)ncc23)cc2c1n(C)c(=O)n2C (stereo not shown) [Example A3, N-(3-(1-(2,6-Dioxopiperidin-3-yl)-1H-benzo[d][1,2,3]triazol-6-yl)prop-2-yn-1-yl)-5-(8-(7-isopropyl-1,3-dimethyl-2-oxo-2,3-dihydro-1H-benzo[d]imidazol-5-yl)isoquinolin-3-yl)picolinamide]	> 1000	< 20	> 80	< 1
CC(C)c1cc(-c2cccc3cc(-c4ccc(C(=O)NCC#Cc5ccc6c(c5)c(C5CCC(=O)NC5=O)nn6C)nc4)ncc23)cc2c1n(C)c(=O)n2C (stereo not shown) [Example A5, N-(3-(3-(2,6-Dioxopiperidin-3-yl)-1-methyl-1H-indazol-5-yl)prop-2-yn-1-yl)-5-(8-(7-isopropyl-1,3-dimethyl-2-oxo-2,3-dihydro-1H-benzo[d]imidazol-5-yl)isoquinolin-3-yl)picolinamide]	10 to 99	> 80	> 80	1 to 9.9
CC(C)c1cc(-c2cccc3cc(-c4ccc(C(=O)NCC#Cc5ccc6ccnc(C7CCC(=O)NC7=O)c6c5)nc4)ncc23)cc2c1n(C)c(=O)n2C (stereo not shown) [Example A10, N-(3-(1-(2,6-Dioxopiperidin-3-yl)isoquinolin-7-yl)prop-2-yn-1-yl)-5-(8-(7-isopropyl-1,3-dimethyl-2-oxo-2,3-dihydro-1H-benzo[d]imidazol-5-yl)isoquinolin-3-yl)picolinamide]	> 1000	< 20	60 to 79	10 to 99
CC(C)c1cc(-c2cccc3cc(-c4ccc(C(=O)NCC#Cc5ccc6cnn(C7CCC(=O)NC7=O)c6c5)nc4)ncc23)cc2c1n(C)c(=O)n2C (stereo not shown) [Example A11, N-(3-(1-(2,6-Dioxopiperidin-3-yl)-1H-indazol-6-yl)prop-2-yn-1-yl)-5-(8-(7-isopropyl-1,3-dimethyl-2-oxo-2,3-dihydro-1H-benzo[d]imidazol-5-yl)isoquinolin-3-yl)picolinamide]	10 to 99	20 to 39	> 80	1 to 9.9
CC(C)c1cc(-c2cccc3cc(-c4ccc(C(=O)NCC#Cc5ccc6oc(=O)n(C7CCC(=O)NC7=O)c6c5)nc4)ncc23)cc2c1n(C)c(=O)n2C (stereo not shown) [Example A14, N-(3-(3-(2,6-Dioxopiperidin-3-yl)-2-oxo-2,3-dihydrobenzo[d]oxazol-5-yl)prop-2-yn-1-yl)-5-(8-(7-isopropyl-1,3-dimethyl-2-oxo-2,3-dihydro-1H-benzo[d]imidazol-5-yl)isoquinolin-3-yl)picolinamide]	10 to 99	60 to 79	> 80	1 to 9.9
CC(C)c1cc(-c2cccc3cc(-c4ccc(C(=O)NCC#Cc5ccc6ncn(C7CCC(=O)NC7=O)c6c5)nc4)ncc23)cc2c1n(C)c(=O)n2C (stereo not shown) [Example A15, N-(3-(1-(2,6-Dioxopiperidin-3-yl)-1H-benzo[d]imidazol-6-yl)prop-2-yn-1-yl)-5-(8-(7-isopropyl-1,3-dimethyl-2-oxo-2,3-dihydro-1H-benzo[d]imidazol-5-yl)isoquinolin-3-yl)picolinamide]	> 1000	< 20	> 80	< 1
CC(C)c1cc(-c2cccc3cc(-c4ccc(C(=O)NC/C=C/c5cc(NC6CCC(=O)NC6=O)nn5C)nc4)ncc23)cc2c1n(C)c(=O)n2C (stereo not shown) [Example A16, (E)-N-(3-(3-((2,6-Dioxopiperidin-3-yl)amino)-1-methyl-1H-pyrazol-5-yl)allyl)-5-(8-(7-isopropyl-1,3-dimethyl-2-oxo-2,3-dihydro-1H-benzo[d]imidazol-5-yl)isoquinolin-3-yl)picolinamide]	> 1000	< 20	20 to 39	1 to 9.9
CC(C)c1cc(-c2cccc3cc(-c4ccc(C(=O)NCC#Cc5ccc6c(c5)n(C5CCC(=O)NC5=O)c(=O)n6C)nc4)ncc23)cc2c1n(C)c(=O)n2C (stereo not shown) [Example A18, N-(3-(3-(2,6-Dioxopiperidin-3-yl)-1-methyl-2-oxo-2,3-dihydro-1H-benzo[d]imidazol-5-yl)prop-2-yn-1-yl)-5-(8-(7-isopropyl-1,3-dimethyl-2-oxo-2,3-dihydro-1H-benzo[d]imidazol-5-yl)isoquinolin-3-yl)picolinamide]	10 to 99	60 to 79	> 80	1 to 9.9
CC(C)c1cc(-c2cccc3cc(-c4ccc(C(=O)NCC#Cc5ccc6occ(C7CCC(=O)NC7=O)c6c5)nc4)ncc23)cc2c1n(C)c(=O)n2C (stereo not shown) [Example A23, N-(3-(3-(2,6-Dioxopiperidin-3-yl)benzofuran-5-yl)prop-2-yn-1-yl)-5-(8-(7-isopropyl-1,3-dimethyl-2-oxo-2,3-dihydro-1H-benzo[d]imidazol-5-yl)isoquinolin-3-yl)picolinamide]	> 1000	< 20	> 80	1 to 9.9
CC(C)c1cc(-c2cccc3cc(-c4ccc(C(=O)NCC#Cc5cc(NC6CCC(=O)NC6=O)nn5C)nc4)ncc23)cc2c1n(C)c(=O)n2C (stereo not shown) [Example A24, N-(3-(3-((2,6-Dioxopiperidin-3-yl)amino)-1-methyl-1H-pyrazol-5-yl)prop-2-yn-1-yl)-5-(8-(7-isopropyl-1,3-dimethyl-2-oxo-2,3-dihydro-1H-benzo[d]imidazol-5-yl)isoquinolin-3-yl)picolinamide]	> 1000	< 20	> 80	< 1
CC(C)c1cc(-c2cccc3cc(-c4ccc(C(=O)NCC#Cc5ccc6ncc(C7CCC(=O)NC7=O)n6c5)nc4)ncc23)cc2c1n(C)c(=O)n2C (stereo not shown) [Example A25, N-(3-(3-(2,6-Dioxopiperidin-3-yl)imidazo[1,2-a]pyridin-6-yl)prop-2-yn-1-yl)-5-(8-(7-isopropyl-1,3-dimethyl-2-oxo-2,3-dihydro-1H-benzo[d]imidazol-5-yl)isoquinolin-3-yl)picolinamide]	100 to 999	< 20	> 80	< 1
